Source: patent US6906093B2, “Indolinone combinatorial libraries and related products and methods for the treatment of disease” (Sugen, Inc., priority 1995, dated 2005)

Legend:
FLK-1 receptor = biological target: T1, FLK-1 receptor (Mus musculus, UniProt P35918); assay: FLK-1 ELISA in FLK-1/NIH3T3 cells; format: cell-based; conditions: ELISA, FLK-1/NIH3T3 cells, VEGF stimulated
T1 construct: expressed in transfected cells; host or cells: NIH3T3 C7 #3

HER2 Kinase = biological target: T2, HER2 Kinase (Homo sapiens, UniProt P04626); assay: HER-2 ELISA (whole-cell HER2 kinase activity); format: cell-based; conditions: whole cells
T2 construct: fused on or other part: Candidate partner: EGFR extracellular domain (P00533) in place of HER2's own ectodomain if Assay 1 was used; none if Assay 2 (BT-474) was used
T2 sequence (P04626 720-987 limits assumed): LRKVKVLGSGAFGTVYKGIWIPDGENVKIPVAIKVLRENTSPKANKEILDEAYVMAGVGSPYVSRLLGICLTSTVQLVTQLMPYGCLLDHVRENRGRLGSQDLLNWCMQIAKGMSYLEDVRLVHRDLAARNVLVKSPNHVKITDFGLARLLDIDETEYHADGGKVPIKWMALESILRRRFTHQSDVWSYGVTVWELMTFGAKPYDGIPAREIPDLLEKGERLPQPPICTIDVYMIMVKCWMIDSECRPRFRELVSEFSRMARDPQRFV
Experimental: Assay 1: EGF Receptor-HER2 Chimeric Receptor Assay In Whole Cells. HER2 kinase activity in is whole EGFR-NIH3T3 cells was measured as described below:
Materials and Reagents. The following materials and reagents were used to conduct the assay: • a. […] Anti-phosphotyrosine antibody (anti-Ptyr) (polyclonal) (see, Fendley, et al., supra). • d. Detection antibody: Goat anti-rabbit lgG horse radish peroxidase conjugate, TAGO, Inc., Burlingame, Calif. • e. TBST buffer:
Stock reagents of: • EDTA 100 mM pH 7.0 • Na3VO4 0.5 M • Na4(P2O7) 0.2 M
(§1) Procedure. The following protocol was used:
Coated plates are good for up to 10 days when stored at 4° C.
On day of use, remove coating buffer and replace with 100 μl blocking buffer (5% Carnation Instant Non-Fat Dry Milk in PBS). Incubate the plate, shaking, at room temperature (about 23° C. to 25° C.) for 30 minutes. Just prior to use, remove blocking buffer and wash plate 4 times with TBST buffer.
An NIH3T3 cell line overexpressing a chimeric receptor containing the EGFR extracellular domain and extracellular HER2 kinase domain can be used for this assay.
Choose dishes having 80-90% confluence for the experiment. Trypsinize cells and stop reaction by adding 10% fetal bovine serum. Suspend cells in DMEM medium (10% CS DMEM medium) and centrifuge once at 1500 rpm, at room temperature for 5 minutes.
Resuspend cells in seeding medium (DMEM, 0.5% bovine serum), and count the cells using trypan blue. Viability above 90% is acceptable. Seed cells in DMEM medium (0.5% bovine serum) at a density of 10,000 cells per well, 100 μl per well, in a 96 well microtiter plate. Incubate seeded cells in 5% CO2 at 37° C. for about 40 hours.
Check seeded cells for contamination using an inverted microscope. Dilute drug stock (10 mg/ml in DMSO) 1:10 in DMEM medium, then transfer 5 l to a TBST well for a final drug dilution of 1:200 and a final DMSO concentration of 1%. Control wells receive DMSO alone. Incubate in 5% CO2 at 37° C. for two hours.
Prepare EGF ligand: dilute stock EGF in DMEM so that upon transfer of 10 μl dilute EGF (1:12 dilution), 100 nM final concentration is attained.
Prepare fresh HNTG* sufficient for 100 μl per well; and place on ice.
After 120 minutes incubation with drug, add prepared SGF ligand to cells, 10 μl per well, to a final concentration of 100 nM. Control wells receive DMEM alone. Incubate, shaking, at room temperature, for 5 minutes.
Remove drug, EGF, and DMEM. Wash cells twice with PBS. Transfer HNTG* to cells, 100 μl per well. Place on ice for 5 minutes. Meanwhile, remove blocking buffer from other ELISA plate and wash with TBST as described above. […]
The maximal phosphotyrosine signal is determined by subtracting the value of the negative controls from the positive controls.

PDGFR = assay: PDGF-R ELISA (receptor phosphotyrosine in whole cells); format: cell-based; conditions: U1242 cells
Experimental: All cell culture media, glutamine, and fetal bovine serum were purchased from Gibco Life Technologies (Grand Island, N.Y.) unless otherwise specified. […] All cell lines were routinely subcultured twice a week and were negative for mycoplasma as determined by the Mycotect method (Gibco).
For ELISA assays, cells (U1242, obtained from Joseph Schlessinger, NYU) were grown to 80-90% confluency in growth medium (MEM with 10% FBS, NEAA, 1 mM NaPyr and 2 mM GLN) and seeded in 96-well tissue culture plates in 0.5% serum at 25,000 to 30,000 cells per well. After overnight incubation in 0.5% serum-containing medium, cells were changed to serum-free medium and treated with test compound for 2 hr in a 5% CO2, 37° C. incubator. […] Lysates were incubated with shaking for 1 hour at room temperature. The plates were washed with TBST four times and then incubated with polyclonal anti-phosphotyrosine antibody at room temperature for 30 minutes. Excess anti-phosphotyrosine antibody was removed by rinsing the plate with TBST four times. Goat anti-rabbit IgG antibody was added to the ELISA plate for 30 min at room temperature followed by rinsing with TBST four more times. […] Absorbance at 410 nm with a reference wavelength of 630 nm was recorded about 15 to 30 min after ABTS addition.

HUV-EC-C cells [1] = assay: HUV-EC-C assay, VEGF-induced [3H]thymidine incorporation; format: cell-based, human; conditions: VEGF-stimulated HUV-EC cells; read-out: Mitogenesis in Endothelial Cells, [3H] Thymidine Incorporation, HUV-EC Assay, VEGF
Experimental: (§2) Repeat the wash two more times with D-PBS, resuspend the cells in about 1 ml assay medium/15 cm^2 of tissue culture flask.
(§3) Add cells to 96-well flat-bottom plates at 100 μl/well or 0.8-1.0×10^4 cells/well; incubate ˜24 h at 37° C., 5% CO2.
(§4) Use the same assay medium as mentioned in day 0, step 2 above. Titrations are made by adding 90 μl/well of drug at 200 μM (4× the final well concentration) to the top well of a particular plate column. Since the stock drug concentration-is usually 20 mM in DMSO, the 200 μM drug concentration contains 2% DMSO.
(§5) Therefore, diluent made up to 2% DMSO in assay medium (F12K+0.5% fetal bovine serum) is used as diluent for the drug titrations in order to dilute the drug but keep the DMSO concentration constant. Add this diluent to the remaining wells in the column at 60 μl/well. Take 60 μl from the 120 μl of 200 μM drug dilution in the top well of the column and mix with the 60 μl in the second well of the column. Take 60 μl from this well and mix with the 60 μl in the third well of the column, and so on until two-fold titrations-are completed. When the next-to-the-last well is mixed, take 60 μl of the 120 μl in this well and discard it. Leave the last well with 60 μl of DMSO/media diluent as a non-drug-containing control. […] 9 columns of titrated drug, enough for triplicate wells each for 1) VEGF (obtained from Pepro Tech Inc., catalogue no. 100-200, 2) endothelial cell growth factor (ECGF) (also known as acidic fibroblast growth factor, or aFGF) (obtained from Boehringer Mannheim Biochemica, catalogue no. […] ECGF comes as a preparation with sodium heparin.
(§6) Transfer 50 μl/well of the drug dilutions to the 96-well assay plates containing the 0.8-1.0×10^4 cells/100 μl/well of the HUV-EC-C cells from day 0 and incubate ˜2 h at 37° C., 5% CO2.
(§7) In triplicate, add 50 μl/well of 80 μg/ml VEGF, 20 ng/ml ECGF, or media control to each drug condition. As with the drugs, the growth factor concentrations are 4× the desired final concentration. Use the assay media from day 0 step 2 to make the concentrations of growth factors.
Freeze plates overnight at −20° C.

HUV-EC-C cells [2] = assay: HUV-EC-C assay, a-FGF (ECGF)-induced [3H]thymidine incorporation; format: cell-based, human; conditions: a-FGF-stimulated HUV-EC cells; read-out: Mitogenesis in Endothelial Cells, [3H] Thymidine Incorporation, HUV-EC Assay, a-FGF
Experimental: as §2, §3, §4, §5, §6, §7
Freeze plates overnight at −20° C.

[3] = system: 3T3/PDGFR + PDGF (T) cells; assay: 3T3/PDGF-βR/PDGF-BB(T) Cell Growth SRB Assay; format: cell-based; conditions: NIH 3T3 cells expressing PDGF-βR and PDGF-ββ, tumor-derived; read-out: Cell Growth Assay, SRB Readout, 3T3/PDGFR + PDGF (T) IC50
Experimental: Assay 3: 3T3/PDGF-βR/PDGF-BB(T) Cell Growth SRB Assay
This part of assay is carried out in a laminar flow hood.
Trypsinize cells as usual. Transfer 200 μl of cell suspension to 10 ml of isotone. Count cells on the Coulter Counter.
Dilute cells in growth medium to 60,000 cells/ml. Transfer 100 μl of cells to each well in a 96-well flat bottom plate to give 6000 cells/well.
Gently shake plates to allow for uniform attachment of the cells to the plate.
Incubate the plates at 37° C. in a 10% CO2 incubator.
Day 1: Addition of Compound: same as for Assay 1.
Day 5: Development of Assay: same as for Assay 1.

EGF Receptor = biological target: T3, EGF Receptor (Homo sapiens, UniProt P00533); assay: EGF Receptor ELISA (EGFR-NIH3T3 assay); format: cell-based; conditions: EGFR-NIH3T3 whole cells
T3 construct: expressed in transfected cells; host or cells: NIH 3T3/C7 (3T3/EGFRc7)
T3 sequence (P00533 25-1210): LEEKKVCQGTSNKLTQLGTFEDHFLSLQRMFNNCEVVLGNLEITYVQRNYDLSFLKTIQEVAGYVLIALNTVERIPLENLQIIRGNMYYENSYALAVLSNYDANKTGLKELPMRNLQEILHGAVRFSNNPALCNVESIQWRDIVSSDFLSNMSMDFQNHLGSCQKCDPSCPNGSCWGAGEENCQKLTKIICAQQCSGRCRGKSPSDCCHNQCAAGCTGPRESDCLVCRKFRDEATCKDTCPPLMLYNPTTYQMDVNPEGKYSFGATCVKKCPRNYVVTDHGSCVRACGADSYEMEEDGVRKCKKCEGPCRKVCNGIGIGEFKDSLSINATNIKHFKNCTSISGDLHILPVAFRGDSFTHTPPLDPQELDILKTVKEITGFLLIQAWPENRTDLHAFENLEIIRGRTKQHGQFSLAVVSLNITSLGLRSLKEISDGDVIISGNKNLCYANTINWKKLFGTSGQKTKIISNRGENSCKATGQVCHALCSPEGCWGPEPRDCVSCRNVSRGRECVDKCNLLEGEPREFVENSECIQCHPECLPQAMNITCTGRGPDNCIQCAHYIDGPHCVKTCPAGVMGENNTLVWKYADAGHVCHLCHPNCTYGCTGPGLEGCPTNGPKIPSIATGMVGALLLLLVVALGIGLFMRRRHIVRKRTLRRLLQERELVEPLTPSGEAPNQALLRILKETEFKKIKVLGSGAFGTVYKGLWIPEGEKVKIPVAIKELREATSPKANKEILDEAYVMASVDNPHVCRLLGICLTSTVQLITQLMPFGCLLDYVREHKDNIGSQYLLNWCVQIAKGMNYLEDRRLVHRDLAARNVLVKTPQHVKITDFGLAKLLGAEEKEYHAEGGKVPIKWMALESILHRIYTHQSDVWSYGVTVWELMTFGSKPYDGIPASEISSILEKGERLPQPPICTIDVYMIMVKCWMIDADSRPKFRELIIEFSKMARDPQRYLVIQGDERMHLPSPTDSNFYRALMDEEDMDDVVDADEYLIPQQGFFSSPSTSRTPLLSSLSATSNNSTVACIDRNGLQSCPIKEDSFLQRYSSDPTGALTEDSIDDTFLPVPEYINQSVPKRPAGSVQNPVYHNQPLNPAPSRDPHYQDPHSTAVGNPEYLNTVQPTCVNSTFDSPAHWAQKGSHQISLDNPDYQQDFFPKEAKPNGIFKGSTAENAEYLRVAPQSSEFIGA
Experimental: EGF Receptor kinase activity (EGFR-NIH3T3 assay) in whole cells was measured as described below:
Materials and Reagents. The following materials and reagents were used • a. […] Anti-phosphotyosine antibody (anti-Ptyr) (polyclonal). • d. Detection antibody: Goat anti-rabbit lgG horse radish peroxidase conjugate, TAGO, Inc., Burlingame, Calif. • e. TBST buffer:
• Keep solution in dark at 4° C. until used. • h. Stock reagents of: • EDTA 100 mM pH 7.0 • Na3VO4 0.5 M • Na4(P2O7) 0.2 M
as §1
1. […] Coated plates are good for up to 10 days when stored at 4° C.
2. On day of use, remove coating buffer and replace with blocking buffer (5% Carnation Instant NonFat Dry Milk in PBS). Incubate the plate, shaking, at room temperature (about 23° C. to 25° C.) for 30 minutes. Just prior to use, remove blocking buffer and wash plate 4 times with TBST buffer.
2. Choose dishes having 80-90% confluence for the experiment. Trypsinize cells and stop reaction by adding. 10% CS DMEM medium. Suspend cells in DMEM medium (10% CS DMEM medium) and centrifuge once at 1000 rpm, and once at room temperature for 5 minutes.
3. Resuspend cells in seeding medium (DMEM, 0.5% bovine serum), and count the cells using trypan blue. Viability above 90% is acceptable. Seed cells in DMEM medium (0.5% bovine serum) at a density of 10,000 cells per well, 100 μl per well, in a 96 well microtiter plate. Incubate seeded cells in 5% CO2 at 37° C. for about 40 hours.
1. Check seeded cells for contamination using an inverted microscope. Dilute drug stock (10 mg/ml in DMSO) 1:10 in DMEM medium, then transfer 5 μl to a test well for a final drug dilution of 1:200 and a final DMSO concentration of 1%. Control wells receive DMSO alone. Incubate in 5% CO2 at 37° C. for one hour.
5. […] Control wells receive. DMEM alone. […]
The maximal phosphotyrosine signal is determined by subtracting the value of the negative controls from the positive controls. The percent inhibition of phosphotyrosine content for extract-containing wells is then calculated, after subtraction of the negative controls.

EpH4-VEGF = assay: FLK-1/Xenograft Model, subcutaneous tumor growth; format: in vivo, mice
Experimental: Assay 2: FLK-1/Xenograft Model.
The ability of the compounds of the present invention to inhibit ovarian, melanoma, prostate, lung and mammary tumor cell lines established as SC xenografts was examined. These studies were conducted using doses ranging from 1 to 75 mg/kg/day.
Materials And Methods. The tumor cells were implanted subcutaneously into the indicated strains of mice. Treatment was initiated on day 1 post implantation unless otherwise indicated (e.g. treatment of the SCID mouse related to the A375 melanoma cell line began on Day 9). Eight (8) to sixteen (16) mice comprised each test group.
Animals. Female athymic mice (BALB/c, nu/nu), BALB/c mice, Wistar rats and Fisher 344 rats were obtained from Simonsen Laboratories (Gilroy, Calif.). Female A/I mice were obtained from Jackson Laboratory (Bar Harbor, Me.). DA rats were obtained from B&K Universal, Inc. (Fremont, Calif.). Athymic R/Nu rats, DBA/2N mice, and BALB/c mice were obtained from Harlan Sprague Dawley (Indianapolis, Ind.). Female C57BL/6 mice were obtained from Taconic (Germantown, N.Y.). […]
Subcutaneous Xenograft Model. […] Tumor growth was measured over 3 to 6 weeks using venier calipers tumor volumes were calculated as a product of length×width×height unless otherwise indicated. P values were calculated using the Students' t-test. […]

T1 sequence (P35918 20-1345): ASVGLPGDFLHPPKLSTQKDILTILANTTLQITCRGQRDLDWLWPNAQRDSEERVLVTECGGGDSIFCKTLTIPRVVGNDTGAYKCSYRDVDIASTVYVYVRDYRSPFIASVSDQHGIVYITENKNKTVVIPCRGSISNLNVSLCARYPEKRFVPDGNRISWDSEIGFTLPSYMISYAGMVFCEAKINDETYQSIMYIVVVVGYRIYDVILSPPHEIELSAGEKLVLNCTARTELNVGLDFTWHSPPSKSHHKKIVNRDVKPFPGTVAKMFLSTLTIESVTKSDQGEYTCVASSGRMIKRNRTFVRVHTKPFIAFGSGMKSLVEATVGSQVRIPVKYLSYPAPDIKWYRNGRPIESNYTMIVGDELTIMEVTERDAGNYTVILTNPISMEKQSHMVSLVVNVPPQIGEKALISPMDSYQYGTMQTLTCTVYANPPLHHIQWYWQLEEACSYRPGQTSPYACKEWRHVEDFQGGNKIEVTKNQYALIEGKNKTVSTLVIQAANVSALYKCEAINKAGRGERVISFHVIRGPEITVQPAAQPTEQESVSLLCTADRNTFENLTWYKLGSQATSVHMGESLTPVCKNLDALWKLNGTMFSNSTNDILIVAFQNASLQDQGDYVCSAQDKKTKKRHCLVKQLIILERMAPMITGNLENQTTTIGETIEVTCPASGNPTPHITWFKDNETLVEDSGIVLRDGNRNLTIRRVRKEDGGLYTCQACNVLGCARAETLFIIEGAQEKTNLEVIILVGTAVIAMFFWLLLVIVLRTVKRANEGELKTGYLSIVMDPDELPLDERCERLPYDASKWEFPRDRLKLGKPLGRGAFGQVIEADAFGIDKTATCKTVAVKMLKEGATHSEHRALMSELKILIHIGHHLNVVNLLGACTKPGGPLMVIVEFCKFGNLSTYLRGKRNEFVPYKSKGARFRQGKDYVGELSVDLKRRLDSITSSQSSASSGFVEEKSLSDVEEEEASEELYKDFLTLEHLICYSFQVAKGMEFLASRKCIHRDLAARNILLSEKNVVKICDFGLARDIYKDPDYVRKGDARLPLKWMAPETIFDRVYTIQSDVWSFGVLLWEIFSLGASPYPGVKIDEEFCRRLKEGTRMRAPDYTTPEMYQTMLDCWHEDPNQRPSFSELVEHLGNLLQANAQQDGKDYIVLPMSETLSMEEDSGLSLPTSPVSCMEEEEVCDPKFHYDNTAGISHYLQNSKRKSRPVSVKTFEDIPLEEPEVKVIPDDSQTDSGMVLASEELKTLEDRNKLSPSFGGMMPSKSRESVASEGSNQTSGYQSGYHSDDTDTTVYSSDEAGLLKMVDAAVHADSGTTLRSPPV

Structure (SMILES)	IC50 (FLK-1 receptor) [µM]	IC50 (HER2 Kinase) [µM]	IC50 (EGF Receptor) [µM]	further results
CN1C(=O)C(=Cc2ccc(N3CCOCC3)cc2)c2ccccc21 [SU4982, 1-Methyl-3-[4-(morpholin-4-yl)benzylidenyl]-2-indolinone]	21.6	39.4	–	–
O=CN1CCN(c2ccc(C=C3C(=O)Nc4ccccc43)cc2)CC1 [SU4984, 3-[4-(4-Formylpiperazin-1-yl)benzylidenyl]-2-indolinone]	1.6	90.2	–	IC50 (PDGFR): 5.8 µM; IC50 (HUV-EC-C cells [1]): 800 nM; IC50 (HUV-EC-C cells [2]): 25.8 µM; IC50 [3]: 22.2 µM
CCc1ccc(C=C2C(=O)Nc3ccccc32)s1 [SU5451, 3-[(2-Ethylthien-5-yl)methylene]-2-indolinone]	3.4	–	44	–
COc1ccc(C=C2C(=O)Nc3ccccc32)c(Cl)c1 [SU5480, 3-[2-Chloro-4-methoxybenzylidenyl]-2-indolinone]	5.3	–	39.6	–
COc1ccccc1C=C1C(=O)Nc2ccccc21 [SU5214, 3-(2-Methoxybenzylidenyl)-2-indolinone]	14.8	–	36.7	–
CN1C(=O)C(=Cc2ccc(Br)cc2)c2ccccc21 [SU4956, 3-(4-Bromobenzylidenyl)-1-methyl-2-indolinone]	–	22.5	–	–
O=C1Nc2ccccc2C1=Cc1ccc(N2CCCCC2)cc1 [SU5450, 3-[4-(Piperidin-1-yl)benzylidenyl]-2-indolinone]	4.5	92.6	–	–
O=C1Nc2ccccc2C1=Cc1ccc(Br)cc1 [SU4942, 3-(4-Bromobenzylidenyl)-2-indolinone]	–	–	–	IC50 (HUV-EC-C cells [2]): 4.6 µM; EpH4-VEGF % inhibition @ mg/kg (EpH4-VEGF; @ 25 mg/kg): 47% @ 25; EpH4-VEGF % inhibition @ mg/kg (EpH4-VEGF; @ 50 mg/kg): 46% @ 50
